Laboratory results from ChEMBL document CHEMBL6127052, “Discovery of membrane-targeting amphiphilic honokiol derivatives containing an oxazolethione moiety to combat methicillin-resistant Staphylococcus aureus (MRSA) infections” (Eur J Med Chem, 2024).

System: Staphylococcus aureus
Assay: Antibacterial activity against methicillin-resistant Staphylococcus aureus clinical isolate M12 by CLSI based micro-broth dilution method
Assay type: functional

First: C=CCc1cc(-c2ccc(OCCC[N+](C)(C)CC(=O)NCCCC)c(CC=C)c2)c2oc(=S)n(Cc3ccc(F)c(Br)c3)c2c1.[Br-]
Second: C=CCc1cc(-c2ccc(OCCC[N+](C)(C)CC(=O)NCCCC)c(CC=C)c2)c2oc(=S)n(Cc3ccc(Br)cc3Br)c2c1.[Br-]
The MIC of the first is lower: 4 µg/mL for the first, greater than 128 µg/mL for the second.

In the case of `C=CCc1cc(-c2ccc(OCCC[N+](C)(C)CC(=O)NCCCC)c(CC=C)c2)c2oc(=S)n(Cc3cccc(OC)c3)c2c1.[Br-]`, the MIC is reported as 4 µg/mL.

System: Staphylococcus aureus
Assay: Antibacterial activity against methicillin-resistant Staphylococcus aureus clinical isolate M11 by CLSI based micro-broth dilution method
Assay type: functional

Going from `C=CCc1cc(-c2ccc(OCCC[N+](C)(C)CC(=O)NCCCC)c(CC=C)c2)c2oc(=S)n(Cc3ccc(F)c(Br)c3)c2c1.[Br-]` to `C=CCc1cc(-c2ccc(OCCC[N+](C)(C)CC(=O)NCCCC)c(CC=C)c2)c2oc(=S)n(Cc3ccc(Br)cc3Br)c2c1.[Br-]`, the MIC rises from 8 µg/mL to greater than 128 µg/mL.

`C=CCc1cc(-c2ccc(OCCC[N+](C)(C)CC(=O)NCCCC)c(CC=C)c2)c2oc(=S)n(Cc3cccc(OC)c3)c2c1.[Br-]` gave an MIC of 4 µg/mL.

System: Staphylococcus aureus
Assay: Antibacterial activity against Staphylococcus aureus ATCC 29213 by CLSI based micro-broth dilution method
Assay type: functional

Going from `C=CCc1cc(-c2ccc(OCCC[N+](C)(C)CC(=O)NCCCC)c(CC=C)c2)c2oc(=S)n(Cc3ccc(F)c(Br)c3)c2c1.[Br-]` to `C=CCc1cc(-c2ccc(OCCC[N+](C)(C)CC(=O)NCCCC)c(CC=C)c2)c2oc(=S)n(Cc3ccc(Br)cc3Br)c2c1.[Br-]`, the MIC rises from 16 µg/mL to greater than 128 µg/mL.

Work on `C=CCc1cc(-c2ccc(OCCC[N+](C)(C)CC(=O)NCCCC)c(CC=C)c2)c2oc(=S)n(Cc3cccc(OC)c3)c2c1.[Br-]` yielded an MIC of 8 µg/mL.

System: not listed separately
Assay: Hemolytic activity in sheep erythrocytes incubated for 1 hr by absorbance based assay
Assay type: toxicity, cell-based, Ovis aries, Erythrocyte

Compared with `C=CCc1cc(-c2ccc(OCCC[N+](C)(C)CC(=O)NCCCC)c(CC=C)c2)c2oc(=S)n(Cc3ccc(F)c(Br)c3)c2c1.[Br-]`, `C=CCc1cc(-c2ccc(OCCC[N+](C)(C)CC(=O)NCCCC)c(CC=C)c2)c2oc(=S)n(Cc3ccc(Br)cc3Br)c2c1.[Br-]` is 1.6-fold higher in HC50 at 1 h: 42.1 µg/mL for the first, 65.4 µg/mL for the second.

Compound `C=CCc1cc(-c2ccc(OCCC[N+](C)(C)CC(=O)NCCCC)c(CC=C)c2)c2oc(=S)n(Cc3cccc(OC)c3)c2c1.[Br-]` has an HC50 at 1 h greater than 160 µg/mL.

System: Staphylococcus aureus
Assay: Antibacterial activity against methicillin-resistant Staphylococcus aureus clinical isolate M17 by CLSI based micro-broth dilution method
Assay type: functional

Compared with `C=CCc1cc(-c2ccc(OCCC[N+](C)(C)CC(=O)NCCCC)c(CC=C)c2)c2oc(=S)n(Cc3ccc(F)c(Br)c3)c2c1.[Br-]`, `C=CCc1cc(-c2ccc(OCCC[N+](C)(C)CC(=O)NCCCC)c(CC=C)c2)c2oc(=S)n(Cc3ccc(Br)cc3Br)c2c1.[Br-]` is higher in MIC: 16 µg/mL for the first, greater than 128 µg/mL for the second.

In the case of `C=CCc1cc(-c2ccc(OCCC[N+](C)(C)CC(=O)NCCCC)c(CC=C)c2)c2oc(=S)n(Cc3cccc(OC)c3)c2c1.[Br-]`, the MIC is reported as 8 µg/mL.

System: not listed separately
Assay: Selectivity index, ratio of HC50 for hemolytic activity in sheep erythrocytes to MIC for antibacterial activity against Staphylococcus aureus ATCC 29213
Assay type: toxicity, cell-based, RBC

Compared with `C=CCc1cc(-c2ccc(OCCC[N+](C)(C)CC(=O)NCCCC)c(CC=C)c2)c2oc(=S)n(Cc3ccc(F)c(Br)c3)c2c1.[Br-]`, `C=CCc1cc(-c2ccc(OCCC[N+](C)(C)CC(=O)NCCCC)c(CC=C)c2)c2oc(=S)n(Cc3ccc(Br)cc3Br)c2c1.[Br-]` is lower in selectivity ratio: 2.6 for the first, 0.5 for the second.

With `C=CCc1cc(-c2ccc(OCCC[N+](C)(C)CC(=O)NCCCC)c(CC=C)c2)c2oc(=S)n(Cc3cccc(OC)c3)c2c1.[Br-]` the selectivity ratio was greater than 20.

System: Staphylococcus aureus
Assay: Antibacterial activity against methicillin-resistant Staphylococcus aureus clinical isolate M22 by CLSI based micro-broth dilution method
Assay type: functional

Compared with `C=CCc1cc(-c2ccc(OCCC[N+](C)(C)CC(=O)NCCCC)c(CC=C)c2)c2oc(=S)n(Cc3ccc(F)c(Br)c3)c2c1.[Br-]`, `C=CCc1cc(-c2ccc(OCCC[N+](C)(C)CC(=O)NCCCC)c(CC=C)c2)c2oc(=S)n(Cc3ccc(Br)cc3Br)c2c1.[Br-]` is higher in MIC: 32 µg/mL for the first, greater than 128 µg/mL for the second.

With `C=CCc1cc(-c2ccc(OCCC[N+](C)(C)CC(=O)NCCCC)c(CC=C)c2)c2oc(=S)n(Cc3cccc(OC)c3)c2c1.[Br-]` the MIC was 16 µg/mL.

System: Staphylococcus aureus
Assay: Antibacterial activity against methicillin-resistant Staphylococcus aureus clinical isolate M23 by CLSI based micro-broth dilution method
Assay type: functional

Compared with `C=CCc1cc(-c2ccc(OCCC[N+](C)(C)CC(=O)NCCCC)c(CC=C)c2)c2oc(=S)n(Cc3ccc(F)c(Br)c3)c2c1.[Br-]`, `C=CCc1cc(-c2ccc(OCCC[N+](C)(C)CC(=O)NCCCC)c(CC=C)c2)c2oc(=S)n(Cc3ccc(Br)cc3Br)c2c1.[Br-]` is higher in MIC: 8 µg/mL for the first, greater than 128 µg/mL for the second.

With `C=CCc1cc(-c2ccc(OCCC[N+](C)(C)CC(=O)NCCCC)c(CC=C)c2)c2oc(=S)n(Cc3cccc(OC)c3)c2c1.[Br-]` the MIC was 8 µg/mL.

System: Staphylococcus aureus
Assay: Antibacterial activity against methicillin-resistant Staphylococcus aureus clinical isolate M20 by CLSI based micro-broth dilution method
Assay type: functional

First: C=CCc1cc(-c2ccc(OCCC[N+](C)(C)CC(=O)NCCCC)c(CC=C)c2)c2oc(=S)n(Cc3ccc(F)c(Br)c3)c2c1.[Br-]
Second: C=CCc1cc(-c2ccc(OCCC[N+](C)(C)CC(=O)NCCCC)c(CC=C)c2)c2oc(=S)n(Cc3ccc(Br)cc3Br)c2c1.[Br-]
The MIC of the first is lower: 4 µg/mL for the first, greater than 128 µg/mL for the second.

In the case of `C=CCc1cc(-c2ccc(OCCC[N+](C)(C)CC(=O)NCCCC)c(CC=C)c2)c2oc(=S)n(Cc3cccc(OC)c3)c2c1.[Br-]`, the MIC is reported as 4 µg/mL.

System: Staphylococcus aureus
Assay: Antibacterial activity against methicillin-resistant Staphylococcus aureus N315 by CLSI based micro-broth dilution method
Assay type: functional

Compared with `C=CCc1cc(-c2ccc(OCCC[N+](C)(C)CC(=O)NCCCC)c(CC=C)c2)c2oc(=S)n(Cc3ccc(F)c(Br)c3)c2c1.[Br-]`, `C=CCc1cc(-c2ccc(OCCC[N+](C)(C)CC(=O)NCCCC)c(CC=C)c2)c2oc(=S)n(Cc3ccc(Br)cc3Br)c2c1.[Br-]` is 8-fold higher in MIC: 16 µg/mL for the first, 128 µg/mL for the second.

For `C=CCc1cc(-c2ccc(OCCC[N+](C)(C)CC(=O)NCCCC)c(CC=C)c2)c2oc(=S)n(Cc3cccc(OC)c3)c2c1.[Br-]`, the MIC was 8 µg/mL.

System: Staphylococcus aureus
Assay: Antibacterial activity against methicillin-resistant Staphylococcus aureus clinical isolate M16 by CLSI based micro-broth dilution method
Assay type: functional

Compared with `C=CCc1cc(-c2ccc(OCCC[N+](C)(C)CC(=O)NCCCC)c(CC=C)c2)c2oc(=S)n(Cc3ccc(F)c(Br)c3)c2c1.[Br-]`, `C=CCc1cc(-c2ccc(OCCC[N+](C)(C)CC(=O)NCCCC)c(CC=C)c2)c2oc(=S)n(Cc3ccc(Br)cc3Br)c2c1.[Br-]` is higher in MIC: 8 µg/mL for the first, greater than 128 µg/mL for the second.

`C=CCc1cc(-c2ccc(OCCC[N+](C)(C)CC(=O)NCCCC)c(CC=C)c2)c2oc(=S)n(Cc3cccc(OC)c3)c2c1.[Br-]` showed an MIC of 4 µg/mL.

System: Staphylococcus aureus
Assay: Antibacterial activity against methicillin-resistant Staphylococcus aureus clinical isolate M13 by CLSI based micro-broth dilution method
Assay type: functional

First: C=CCc1cc(-c2ccc(OCCC[N+](C)(C)CC(=O)NCCCC)c(CC=C)c2)c2oc(=S)n(Cc3ccc(F)c(Br)c3)c2c1.[Br-]
Second: C=CCc1cc(-c2ccc(OCCC[N+](C)(C)CC(=O)NCCCC)c(CC=C)c2)c2oc(=S)n(Cc3ccc(Br)cc3Br)c2c1.[Br-]
The MIC of the first is lower: 8 µg/mL for the first, greater than 128 µg/mL for the second.

With `C=CCc1cc(-c2ccc(OCCC[N+](C)(C)CC(=O)NCCCC)c(CC=C)c2)c2oc(=S)n(Cc3cccc(OC)c3)c2c1.[Br-]` the MIC was 8 µg/mL.

System: Staphylococcus aureus
Assay: Antibacterial activity against methicillin-resistant Staphylococcus aureus clinical isolate M14 by CLSI based micro-broth dilution method
Assay type: functional

Going from `C=CCc1cc(-c2ccc(OCCC[N+](C)(C)CC(=O)NCCCC)c(CC=C)c2)c2oc(=S)n(Cc3ccc(F)c(Br)c3)c2c1.[Br-]` to `C=CCc1cc(-c2ccc(OCCC[N+](C)(C)CC(=O)NCCCC)c(CC=C)c2)c2oc(=S)n(Cc3ccc(Br)cc3Br)c2c1.[Br-]`, the MIC rises from 8 µg/mL to greater than 128 µg/mL.

In the case of `C=CCc1cc(-c2ccc(OCCC[N+](C)(C)CC(=O)NCCCC)c(CC=C)c2)c2oc(=S)n(Cc3cccc(OC)c3)c2c1.[Br-]`, the MIC is reported as 4 µg/mL.

System: Escherichia coli
Assay: Antibacterial activity against Escherichia coli ATCC 25922 by CLSI based micro-broth dilution method
Assay type: functional

`C=CCc1cc(-c2ccc(OCCC[N+](C)(C)CC(=O)NCCCC)c(CC=C)c2)c2oc(=S)n(Cc3ccc(F)c(Br)c3)c2c1.[Br-]` and `C=CCc1cc(-c2ccc(OCCC[N+](C)(C)CC(=O)NCCCC)c(CC=C)c2)c2oc(=S)n(Cc3ccc(Br)cc3Br)c2c1.[Br-]` cannot be ordered by MIC: greater than 128 µg/mL for the first, greater than 128 µg/mL for the second.

`C=CCc1cc(-c2ccc(OCCC[N+](C)(C)CC(=O)NCCCC)c(CC=C)c2)c2oc(=S)n(Cc3cccc(OC)c3)c2c1.[Br-]` showed an MIC greater than 128 µg/mL.

System: Staphylococcus aureus
Assay: Antibacterial activity against methicillin-resistant Staphylococcus aureus clinical isolate M21 by CLSI based micro-broth dilution method
Assay type: functional

Going from `C=CCc1cc(-c2ccc(OCCC[N+](C)(C)CC(=O)NCCCC)c(CC=C)c2)c2oc(=S)n(Cc3ccc(F)c(Br)c3)c2c1.[Br-]` to `C=CCc1cc(-c2ccc(OCCC[N+](C)(C)CC(=O)NCCCC)c(CC=C)c2)c2oc(=S)n(Cc3ccc(Br)cc3Br)c2c1.[Br-]`, the MIC rises from 4 µg/mL to greater than 128 µg/mL.

`C=CCc1cc(-c2ccc(OCCC[N+](C)(C)CC(=O)NCCCC)c(CC=C)c2)c2oc(=S)n(Cc3cccc(OC)c3)c2c1.[Br-]` gave an MIC of 4 µg/mL.
